What was measured:
IL-4 = experiment: Functional Th2-blocking activity: IL-4 expression in primary human Th2 cells (intracellular flow cytometry); format: cell-based; details: primary human CD4+ Th2 cells; for % Normalized Reduction of Cytokine Expression From Baseline in CD4+ T Cells IL-4: normalized against vehicle control (water), 3 days co-culture, PMA/ionomycin 6 hours; for Expression of Cytokine following Stimulation (% X Positive among CD4+ T cells) IL-4: 3 days co-culture with compound, PMA/ionomycin stimulation 6 hours
Description: (§1) To produce T helper 2 (Th2) cells, peripheral blood mononuclear cells (PBMCs) were harvested from healthy donor leukopaks using Ficoll gradients. Naive CD4+ T cells were further isolated, then activated using TransAct or Dynabeads (depending on the donor). CD4+ T cells were activated for two days in the presence of low dose IL-2 (30 IU/mL) in X-VIVO-15 media containing 5% human AB serum (activation cycle). On the second day, the media was exchanged and supplemented with interleukin 4 (IL-4) (20 ng/mL), anti-IFN-gamma antibody (1 μg/mL), and interleukin 2 (IL-2) (rest cycle). The cells were cultured for an additional five days then evaluated for Prostaglandin D2 receptor 2 (DP2 or CRTH2) expression and IL-4 and interleukin 13 (IL-13) expression following phorbol myristate acetate (PMA)/ionomycin stimulation. If the expression of CRTH2 was >50%, the cells were frozen and used in Th2 IL-4/IL-13 bioactivity assays. If the expression of CRTH2 <50%, then the cells were restimulated using TransAct (or Dynabeads) and maintained on similar cycles of activation (2 days) and rest (5 days), until the expression of CRTH2 exceeded 50%. Typically, no more than 4 cycles are needed before the Th2 cells may be harvested and frozen.
(§2) For testing the ability of a compound or salt of the present disclosure to reduce the expression of IL-4 and IL-13 was tested in primary human Th2 cells, the abovementioned cells were thawed, then cultured for one day in IL-2 containing media. The Th2 cells were treated with compounds added at varying concentrations for three days, after which, the cells were washed, and stimulated with PMA/ionomycin for 6 hrs prior to readabout via intracellular flow cytometry.
(§3) The ability of a compound or salt of the present disclosure to reduce the expression of IL-4 and IL-13 was tested in primary human Th2 cells. Naive, primary human CD4+ T cells were isolated from healthy donors and differentiated into Th2 cells using a combination of IL-4 cytokine and anti-IFN-gamma antibody, based on a modified protocol from Scott et al (Activation of Th2 cells downregulates CRTh2 through an NFAT1 mediated mechanism. PLoS One. 2018 Jul. 3; 13(7):e0199156). Th2 cells were CRTH2+ and expressed IL-4 and IL-13 following PMA/ionomycin stimulation. Prior to PMA/ionomycin stimulation, Th2 cells were co-cultured with a compound or salt of the present disclosure for 3 days and then stimulated for 6 hours. Intracellular flow cytometry was performed to investigate the expression of IL-4 and IL-13 among stimulated CD4+ Th2 cells. The compound or salt was evaluated across a 2-log concentration range. Th2 cells were cultured in X-VIVO-15 media with human AB serum and supplemented with low dose IL-2 (30 IU/mL). The antibody panel that was used is listed below. All antibodies were obtained from Biolegend.
(§4) Description of Calculation for: (1) Expression of Cytokine following Stimulation (% X Positive among CD4+ T cells), and (2) % Normalized Reduction of Cytokine Expression From Baseline in CD4+ T Cells
(§5) The expression of IL-4 and IL-13 was measured based on positive gated fractions among CD4+ Th2 cells. The number is expressed as a positive percentage, determined based on the fluorescence-minus-one (FMO) control. The max percent is 100%. The normalized reduction value uses the vehicle control (water) to normalize against using the following percent change formula. (Cmpd: compound)

IL-13 = experiment: Functional Th2-blocking activity: IL-13 expression in primary human Th2 cells (intracellular flow cytometry); format: cell-based; details: for Expression of Cytokine following Stimulation (% X Positive among CD4+ T cells) IL-13: 3 days co-culture with compound, PMA/ionomycin stimulation 6 hours; for % Normalized Reduction of Cytokine Expression From Baseline in CD4+ T Cells IL-13: normalized against vehicle control (water), 3 days co-culture, PMA/ionomycin 6 hours
Description: as §1, §2, §3, §4, §5

IL-4 receptor signaling = experiment: IL-4 signaling inhibition in HEK-Blue IL-4/IL-13 cells; format: cell-based, human; details: HEK-Blue IL-4/IL-13 cells stimulated with 1.25 ng/mL IL-4, co-culture with varying concentrations for 24 hours
Experimental: HEK-Blue IL-4/IL-13 cells are used to evaluate IL-4/IL-4R-alpha binding. HEK-Blue IL-4/IL-13 have been engineered to produce secreted alkaline phosphatase (SEAP) when exposed to IL-4 or IL-13 and have been previously used to identify IL-4 and IL-4R inhibitors. Compounds are tested with these cells at various dosages to evaluate dose dependent changes in IL-4/IL-4R-alpha binding inhibition. Full EC50 curves are generated for Tier1 compounds.
In the experiment, engineered HEK-Blue™ IL-4/IL-13 cells were stimulated with a dose of 1.25 ng/mL of IL-4 and then subjected to co-culture with varying concentrations of the compounds for a period of 24 hours. […] The provided data represent the mean±standard deviation of six technical replicates carried out across two experimental replicates.

SMILES	% Normalized Reduction of Cytokine Expression From Baseline in CD4+ T Cells IL-4 (IL-4)	Expression of Cytokine following Stimulation (% X Positive among CD4+ T cells) IL-4 (IL-4)	Expression of Cytokine following Stimulation (% X Positive among CD4+ T cells) IL-13 (IL-13)	% Normalized Reduction of Cytokine Expression From Baseline in CD4+ T Cells IL-13 (IL-13)	IL-4 signaling inhibition (IL-4 receptor signaling)
Nc1c(C(=O)Nc2ccc(Cl)c(Cl)c2)c2ccccn2c1C(=O)c1cccc([N+](=O)[O-])c1 [Compound I-3, 2-amino-N-(3,4-dichlorophenyl)-3-(3-nitrobenzoyl)indolizine-1-carboxamide]	B (B represents 15% to less than 20%)	B (B represents 30% to less than 35%)	C (C represents 14% to less than 18%)	C (C represents 40% to less than 50%)	prominent IL-4 signaling inhibition
CN1c2c(nc(N)[nH]c2=O)NCC1CNc1ccc(C(=O)NC(CCC(=O)O)C(=O)O)cc1.[Ca+2] (stereo not shown) [VI-4, Levomefolate calcium, reference compound]	B (B represents 15% to less than 20%)	B (B represents 30% to less than 35%)	C (C represents 14% to less than 18%)	B (B represents 30% to less than 40%)	
Cc1ccc(C)n1-c1ccsc1C(=O)NC1CCCC1 [VI-5, N-cyclopenty1-3-(2,5-dimethy1-1H-pyrrol-1-yl)thiophene-2-carboxamide]	B (B represents 15% to less than 20%)	B (B represents 30% to less than 35%)	C (C represents 14% to less than 18%)	B (B represents 30% to less than 40%)	
Cn1nc(C(=O)NC(CCC(=O)O)C(=O)O)c2ccccc2c1=O (stereo not shown) [VI-6, 2-[(3-methyl-4-oxo-3,4-dihydrophthalazin-1-yl)formamido]pentanedioic acid]	A (A represents 0% to less than 15%)	C (C represents 35% to less than 40%)	C (C represents 14% to less than 18%)	B (B represents 30% to less than 40%)	
CC1=NN(c2cccc(Cl)c2)C(=O)/C1=C\Nc1cccc2c1C(=O)c1ccccc1C2=O [VI-7, 1-({[1-(3-chlorophenyl)-3-methyl-5-oxo-1,5-dihydro-4H-pyrazol-4-ylidene]methyl}amino)anthra-9,10-quinone]	D (D represents 25% or greater)	B (B represents 30% to less than 35%)	C (C represents 14% to less than 18%)	B (B represents 30% to less than 40%)	
Cc1ccc(C)n1-c1ccsc1C(=O)N1CCOC(c2ccccc2)C1 (stereo not shown) [VI-8, 4-[3-(2,5-dimethyl-1H-pyrrol-1-yl)thiophene-2-carbonyl]-2-phenylmorpholine]	A (A represents 0% to less than 15%)	C (C represents 35% to less than 40%)	C (C represents 14% to less than 18%)	C (C represents 40% to less than 50%)	
O=C(c1ccc(F)cc1F)C1(O)CCN(Cc2ccc3cnccc3c2)CC1 [VI-9, 4-(2,4-difluorobenzoyl)-1-[(isoquinolin-6-yl)methyl]piperidin-4-ol]	D (D represents 25% or greater)	A (A represents 0% to less than 30%)	C (C represents 14% to less than 18%)	C (C represents 40% to less than 50%)	
Cc1ccc(CCNC(=O)c2ccc3c(=O)n(-c4ccc(C)cc4)c(=O)[nH]c3c2)cc1 [VI-10, 3-(4-methylpheny1)-N-[2-(4-methylphenyl)ethyl]-2,4-dioxo-1,2,3,4-tetrahydroquinazoline-7-carboxamide]	C (C represents 20% to less than 25%)	B (B represents 30% to less than 35%)	C (C represents 14% to less than 18%)	B (B represents 30% to less than 40%)	
O=C(N/N=C/c1cccc(OCc2ccccc2)c1)c1cc2ccccc2cc1O [VI-11, N′-[3-(benzyloxy)benzylidene]-3-hydroxy-2-naphthohydrazide]	A (A represents 0% to less than 15%)	D (D represents 40% or greater)	D (D represents 18% or greater)	A (A represents 0% to less than 30%)	
COc1ccc(-c2cc(=O)c3c(O)cc(O[C@@H]4O[C@H](CO)[C@@H](O)[C@H](O)[C@H]4O)cc3o2)cc1O [VI-12, Diosmetin-7-O-beta-D-glucopyranoside]	D (D represents 25% or greater)	A (A represents 0% to less than 30%)	A (A represents 0% to less than 10%)	D (D represents 50% or greater)	
O=C(Oc1ccc(OC(=O)c2ccc3c(c2)C(=O)OC3=O)cc1)c1ccc2c(c1)C(=O)OC2=O [VI-13, 4-(1,3-dioxo-1,3-dihydro-2-benzofuran-5-carbonyloxy)phenyl 1,3-dioxo-1,3-dihydro-2-benzofuran-5-carboxylate]	C (C represents 20% to less than 25%)	B (B represents 30% to less than 35%)	C (C represents 14% to less than 18%)	B (B represents 30% to less than 40%)	
O=C1Cc2cc(-c3csc(Cc4ccc(F)cc4)n3)cc3c2N1CCC3 [VI-14, 8-(2-(4-fluorobenzyl)thiazol-4-yl)-5,6-dihydro-4H-pyrrolo[3,2,1-ij]quinolin-2(1H)-one]	C (C represents 20% to less than 25%)	B (B represents 30% to less than 35%)	B (B represents 10% to less than 14%)	D (D represents 50% or greater)	

From patent US20260083701A1, “COMPOSITIONS, FORMULATIONS, AND METHODS FOR TREATMENT OF INFLAMMATORY CONDITIONS” (Oddity Labs, LLC, priority 2023, published 2026)
